Source: ChEMBL document CHEMBL1773045, “Conjugate (MTC-220) of muramyl dipeptide analogue and paclitaxel prevents both tumor growth and metastasis in mice” (J Med Chem, 2011)
The source made the active and inactive calls. The rule behind the calls is not given here.

What was measured:
[1] = test system: UO-31; assay: Growth inhibition of human UO31 cells after 48 hrs by sulforhodamine B assay; format: functional; conditions: UO-31, 48 h
[2] = test system: COLO 205; assay: Growth inhibition of human COLO205 cells after 48 hrs by sulforhodamine B assay; format: functional; conditions: COLO 205, 48 h
[3] = test system: HCT-116; assay: Growth inhibition of human HCT116 cells after 48 hrs by sulforhodamine B assay; format: functional; conditions: HCT-116, 48 h
[4] = test system: 786-0; assay: Growth inhibition of human 786-0 cells after 48 hrs by sulforhodamine B assay; format: functional; conditions: 786-0, 48 h
[5] = test system: Mus musculus; assay: Antimetastatic activity against mouse 4T1 cells xenografted in BALB/c mouse assessed as reduction of CCL2 mRNA expression in tumor at 5 mg/kg, ip qd for 23 days by RT-PCR analysis; format: functional, organism-based; design: dose 5 mg/kg
[6] = test system: UACC-257; assay: Growth inhibition of human UACC257 cells after 48 hrs by sulforhodamine B assay; format: functional; conditions: UACC-257, 48 h
[7] = test system: NCI-H460; assay: Antitumor activity against human H460 cells xenografted in nu/nu BALB/c mouse assessed as tumor growth inhibition at 20 mg/kg, ip qd for 24 days measured on day 25 relative to control; format: functional; conditions: route intraperitoneal, read-out: GI
[8] = test system: IGROV-1; assay: Growth inhibition of human IGROV1 cells after 48 hrs by sulforhodamine B assay; format: functional; conditions: IGROV-1, 48 h
[9] = test system: 4T1; assay: Antimetastatic activity against mouse 4T1 cells xenografted in […] mouse assessed as inhibition of lung metastasis at 2.5 to 10 mg/kg, ip qd for 28 days; format: functional, organism-based
[10] = test system: MDA-MB-231; assay: Growth inhibition of human MDA-MB-231 cells after 48 hrs by sulforhodamine B assay; format: functional; conditions: MDA-MB-231, 48 h
[11] = test system: A2780; assay: Antitumor activity against human A2780 cells xenografted in nu/nu BALB/c mouse assessed as tumor growth inhibition at 30 mg/kg, ip qd for 12 days measured on day 25 relative to control; format: functional; conditions: route intraperitoneal, read-out: GI
[12] = test system: SF-295; assay: Growth inhibition of human SF295 cells after 48 hrs by sulforhodamine B assay; format: functional; conditions: SF-295, 48 h
[13] = test system: Mus musculus; assay: Toxicity in mouse LLC cells xenografted C57BL/6 mouse assessed as decrease in body weight at 10 mg/kg, ip qd for 15 days; format: organism-based; design: dose 10 mg/kg, route intraperitoneal; conditions: in vivo, 360 h
[14] = test system: NCI/ADR-RES; assay: Growth inhibition of human NCI/ADR-RES cells after 48 hrs by sulforhodamine B assay; format: functional
[15] = test system: A549; assay: Antitumor activity against human A549 cells xenografted in nu/nu BALB/c mouse assessed as tumor growth inhibition at 30 mg/kg, ip qd for 12 days measured on day 25 relative to control; format: functional; conditions: route intraperitoneal, read-out: GI
[16] = test system: UACC-62; assay: Growth inhibition of human UACC62 cells after 48 hrs by sulforhodamine B assay; format: functional; conditions: UACC-62, 48 h
[17] = test system: HCT-15; assay: Growth inhibition of human HCT15 cells after 48 hrs by sulforhodamine B assay; format: functional; conditions: HCT-15, 48 h
[18] = Growth inhibition of human Hs 578T cells after 48 hrs by sulforhodamine B assay; format: functional
[19] = test system: PC-3M; assay: Cytotoxicity against human PC3M cells after 72 hrs by MTT assay; format: functional, cell-based
[20] = test system: T47D; assay: Growth inhibition of human T47D cells after 48 hrs by sulforhodamine B assay; format: functional
[21] = test system: LOX IMVI; assay: Growth inhibition of human LOXIMVI cells after 48 hrs by sulforhodamine B assay; format: functional
[22] = test system: Mus musculus; assay: Toxicity in human cancer cells xenografted in nu/nu BALB/c mouse assessed as side effects at 5 to 30 mg/kg, ip qd for 24 days; format: organism-based, Cancer cell lines; design: dose 5-30 mg/kg, route intraperitoneal; conditions: in vivo, 576 h
[23] = test system: MDA-MB-231; assay: Antitumor activity against human MDA-MB-231 cells xenografted in nu/nu BALB/c mouse assessed as tumor growth inhibition at 30 mg/kg, ip qd for 12 days measured on day 25 relative to control; format: functional; conditions: MDA-MB-231, ip, route intraperitoneal, read-out: GI
[24] = test system: Lewis lung carcinoma cell line; assay: Antimetastatic activity against mouse LLC cells xenografted in C57BL/6 mouse assessed as inhibition of lung metastasis at 10 mg/kg, ip qd for 15 days relative to control; format: functional; conditions: 360 h, route intraperitoneal, read-out: GI
[25] = test system: HT-29; assay: Growth inhibition of human HT-29 cells after 48 hrs by sulforhodamine B assay; format: functional; conditions: HT-29, 48 h
[26] = test system: MDA-MB-231; assay: Antitumor activity against human MDA-MB-231 cells xenografted in nu/nu BALB/c mouse assessed as tumor growth inhibition at 20 mg/kg, ip qd for 24 days measured on day 25 relative to control; format: functional; conditions: MDA-MB-231, ip, route intraperitoneal, read-out: GI
[27] = test system: BT-549; assay: Growth inhibition of human BT549 cells after 48 hrs by sulforhodamine B assay; format: functional; conditions: BT-549, 48 h
[28] = test system: NCI-H226; assay: Growth inhibition of human NCI-H226 cells after 48 hrs by sulforhodamine B assay; format: functional; conditions: NCI-H226, 48 h
[29] = test system: NCI-H23; assay: Growth inhibition of human NCI-H23 cells after 48 hrs by sulforhodamine B assay; format: functional; conditions: NCI-H23, 48 h
[30] = test system: KB; assay: Cytotoxicity against human KB cells after 72 hrs by MTT assay; format: functional, cell-based
[31] = test system: MDA-MB-231; assay: Antitumor activity against human MDA-MB-231 cells xenografted in nu/nu BALB/c mouse assessed as tumor growth inhibition at 10 mg/kg, ip qd for 24 days measured on day 25 relative to control; format: functional; conditions: MDA-MB-231, ip, route intraperitoneal, read-out: GI
[32] = test system: MCF7; assay: Antitumor activity against human MCF7 cells xenografted in nu/nu BALB/c mouse assessed as tumor growth inhibition at 30 mg/kg, ip qd for 12 days measured on day 36 relative to control; format: functional; conditions: route intraperitoneal, read-out: GI
[33] = test system: SR; assay: Growth inhibition of human SR cells after 48 hrs by sulforhodamine B assay; format: functional
[34] = test system: Mus musculus; assay: Toxicity in human cancer cells xenografted in nu/nu BALB/c mouse assessed as mortality at 5 to 30 mg/kg, ip qd for 24 days; format: organism-based, Cancer cell lines; design: dose 5-30 mg/kg, route intraperitoneal; conditions: in vivo, 576 h
[35] = test system: NCI-H460; assay: Growth inhibition of human NCI-H460 cells after 48 hrs by sulforhodamine B assay; format: functional; conditions: NCI-H460, 48 h
[36] = test system: 4T1; assay: Antitumor activity against mouse 4T1 cells xenografted in […] mouse assessed as tumor growth inhibition at 2.5 mg/kg, ip qd for 28 days relative to control; format: functional; conditions: 4T1, ip, 672 h, route intraperitoneal, read-out: GI
[37] = test system: 4T1; assay: Antitumor activity against mouse 4T1 cells xenografted in […] mouse assessed as tumor growth inhibition at 10 mg/kg, ip qd for 28 days relative to control; format: functional; conditions: 4T1, ip, 672 h, route intraperitoneal, read-out: GI
[38] = test system: SK-MEL-2; assay: Growth inhibition of human SK-MEL-2 cells after 48 hrs by sulforhodamine B assay; format: functional; conditions: SK-MEL-2, 48 h
[39] = test system: K562; assay: Growth inhibition of human K562 cells after 48 hrs by sulforhodamine B assay; format: functional; conditions: K562, 48 h
[40] = test system: KM12; assay: Growth inhibition of human KM12 cells after 48 hrs by sulforhodamine B assay; format: functional; conditions: KM12, 48 h
[41] = test system: Mus musculus; assay: Antimetastatic activity against mouse 4T1 cells xenografted in BALB/c mouse assessed as reduction of MMP9 mRNA expression in tumor at 5 mg/kg, ip qd for 23 days by RT-PCR analysis; format: functional, organism-based; design: dose 5 mg/kg

SMILES: CC(=O)O[C@H]1C(=O)[C@@]2(C)[C@H]([C@H](OC(=O)c3ccccc3)[C@]3(O)C[C@H](OC(=O)[C@H](OC(=O)CCC(=O)NCCCC[C@H](NC(=O)CC[C@H](NC(=O)[C@H](C)NC(=O)/C=C/c4ccc(Cl)cc4)C(N)=O)C(N)=O)[C@H](NC(=O)c4ccccc4)c4ccccc4)C(C)=C1C3(C)C)[C@]1(OC(C)=O)CO[C@@H]1C[C@@H]2O
- GI50 [1]: < 10 nM
- GI50 [2]: < 10 nM
- GI50 [3]: < 10 nM
- GI50 [4]: < 10 nM
- Activity [5]: Active
- GI50 [6]: < 10 nM
- inhibition in vivo at 20 mg/kg [7]: 52.9%
- GI50 [8]: < 10 nM
- growth inhibition (GI) [9]: Active
- GI50 [10]: < 10 nM
- inhibition in vivo at 30 mg/kg [11]: 45.2%
- GI50 [12]: < 10 nM
- Activity [13]: Non-toxic
- GI50 [14]: < 10 nM
- inhibition in vivo at 30 mg/kg [15]: 79.9%
- GI50 [16]: < 10 nM
- GI50 [17]: < 10 nM
- GI50 [18]: < 10 nM
- Activity [19]: Active
- GI50 [20]: < 10 nM
- GI50 [21]: < 10 nM
- Activity [22]: Non-toxic
- inhibition in vivo at 30 mg/kg [23]: 87%
- inhibition in vivo at 10 mg/kg [24]: 47.4%
- GI50 [25]: < 10 nM
- inhibition in vivo at 20 mg/kg [26]: 72.2%
- GI50 [27]: < 10 nM
- GI50 [28]: < 10 nM
- GI50 [29]: < 10 nM
- Activity [30]: Active
- inhibition in vivo at 10 mg/kg [31]: 37.3%
- inhibition in vivo at 30 mg/kg [32]: 100%
- GI50 [33]: < 10 nM
- Activity [34]: Non-toxic
- GI50 [35]: < 10 nM
- inhibition in vivo at 2.5 mg/kg [36]: 27.4%
- inhibition in vivo at 10 mg/kg [37]: 45.9%
- GI50 [38]: < 10 nM
- GI50 [39]: < 10 nM
- GI50 [40]: < 10 nM
- Activity [41]: Active
